{"source": "patent US20210038732A1", "about": "“ANTICANCER MICRORNA AND LIPID FORMULATIONS THEREOF” (INTERNA TECHNOLOGIES B.V., priority 2018, published 2021)", "key": {"4T1": {"tested_on": "4T1", "assay": "Caspase 3/7 apoptosis assay", "format": "cell-based, mouse", "conditions": "10 nM, normalized to mock", "description": "Depending on cancer cell type 3000-6000 cells were seeded in a 96 well plate. After cells attached, they were transfected with different concentrations of miRNA-193a and apoptosis induction was measured at different time points. This assay was performed using Promega kit. 100 uL of caspase reagent was added to 100 uL of media in each well in 96-well plate and incubated for 2 hours in the dark at room temperature. The luminescent signal was read on a luminescent plate reader.\nDifferent biological effects of miRNA-193a-3p have been tested in various cancer cell lines (see Table 13). For this, various cells were treated with miRNA-193a at different concentrations (1, 3, 10 nM). For all experiments controls (untreated, mock and scrambled) were measured. All assays were performed at 24h, 48h and 72h time points. Data shown in Table 13 are the results for miRNA-193a at 10 nM concentration at indicated time points. All the results have been quantified and normalized to the mock control.\nmiRNA-193a treatment in various cancer cell lines decreased cell viability over time as measured by either an MTS assay or by cell count. It enhanced apoptosis induction over time as measured by a caspase 3/7 apoptosis assay. […] It is of note that due to intrinsic characteristics and gene mutation status of each cell line, performing one method to detect apoptosis is not always ideal for all cell lines."}, "[1]": {"tested_on": "orthotopic human Hep3b hepatocellular carcinoma tumors", "assay": "Orthotopic Hep3b model, miRNAs in NOV340, AFP and tumor weight (Example 4.13)", "format": "in vivo, mice", "conditions": "NOV340 nanoparticles, 6 mg/kg iv QODx9 for 3 weeks; day 39", "description": "Six to eight weeks old female SCID/Beige mice (Shanghai Lingchang Bio-Technology Co. Ltd, Shanghai, China) were orthotopically implanted with a single 2×2×2 mm piece of a subq grown Hep3b tumor into the left liver lobe. Mice were randomized based on day 21 AFP levels. At the time of randomization, the AFP levels (ng/ml plasma) ranged between 401 and 40628 ng/ml (median 2536, IQR=1037-5510). Treatments were with sorafenib, with vehicle control, or with various miRNAs (or scrambled miRNA control) encapsulated in NO340 lipid nanoparticles (Simonson and Das, Mini Rev Med Chem, 2015, 15(6): 467-474, PMID: 25807941). Treatments started on day 22 and continued for three weeks (dosing scheme in Table 21). AFP was measured once a week for 4 weeks, and BW was measured twice a week. At the end of the study tumor weights were also determined. QOD×9=one injection every other day for nine times; BID=twice daily; po=per oral.\nAfter terminal sacrifice on day 39, AFP levels and tumor weights were determined."}, "[2]": {"tested_on": "twelve syngeneic tumor models", "assay": "Primary tumor growth in a panel of twelve syngeneic tumor models (significance)", "format": "in vivo, mice", "source_text": "In this study, the effect of miRNA-193a formulated in diamino lipid nanoparticles was investigated on the primary tumor growth in a panel of twelve syngeneic tumor models. Six to eight weeks mice (Shanghai Lingchang Bio-Technology Co. Ltd, Shanghai, China) were subcutaneously injected with an appropriate number of syngeneic cancer cells, depending on the cancer model (see Table 18). At the time of randomization, tumor volume (TV) was approximately 80-120 mm^3. Body weights and TVs (caliper measurements) were determined 2-3 times/week. After randomization (indicated as day 0) mice received PBS or miR-193a (formulated in diamino lipid nanoparticles) treatments as shown in Table 19. Each tumor model had two groups as depicted in Table 19. Mice were scheduled to be euthanized after two weeks of follow up after a maximum of four weeks of treatment."}, "NT5E and ENTPD1": {"tested_on": "NT5E and ENTPD1", "assay": "NT5E and ENTPD1 expression at mRNA and protein level (RT-PCR, western blot)", "format": "cell-based", "conditions": "10 nM, variety of cell lines", "description": "(§1) To prepare cDNA, first 100 ng total RNA was mixed with Random Hexamers (Qiagen; final concentration 2 μM) in a final volume of 12.5 μl in NFW, denatured for 5 min at 70° C. and immediately cooled on ice. Next, 7.5 μl of a cDNA synthesis mix was added, consisting of 4 μl 5×RT Buffer (Promega), 0.4 μl 25 mM dNTPs (Promega), 1 μl 200 U/μL MMLV RT-enzyme (Promega), 0.5 μL 40 U/μL RNAse Inhibitor (Promega) and 1.6 μL NFW. The following cDNA synthesis protocol was used:\nApproximately 1×10^6 cells were harvested and lysed in immunoprecipitation RIPA lysis buffer and the lysates were blotted onto a PVDF membrane. Membranes were probed overnight with primary antibodies and bound antibodies were visualized using HRP-linked secondary antibodies (Cell-Signalling). The antibodies used for western blot included anti-NT5E (D7F9A) from Cell Signalling Technology, and anti-αTubulin from Santa Cruz. αTubulin was used as a loading control for the western blot experiment.\nTo assess the impact of miRNA-193a-3p on adenosine generation, the release of free phosphate in A2058 melanoma cells was measured as a read out for ATP, ADP, and AMP dephosphorylation in supernatants. […] Similar results were found by measuring the direct amount of adenosine in cell culture supernatants (FIG. 16B). Further, the role of miRNA-193a in A2058 cancer cell migration was investigated."}, "[3]": {"tested_on": "K-Ras, MCL1, ENTPD1 (CD39) and TIM-3", "assay": "PD effect: target gene mRNA in orthotopic 4T1 tumors by qPCR (Example 4.6)", "format": "in vivo, mice", "conditions": "10 mg/kg iv QDx2; various time points 2-72 h post final dose", "description": "as §1\nSix to eight weeks old female BALB/c mice (Shanghai Lingchang Bio-Technology Co. Ltd, Shanghai, China) were injected with 3×10^5 4T1 mouse tumor cells in PBS (0.1 mL/mouse) into the mammary fat pad. At the time of randomization, the tumor volumes (TVs) ranged between 252.30-370.45 mm^3. After randomization mice received similar treatments with similar dosing regimen (see Table 11). Mice were sacrificed at pre-determined time points (see Table 11). The tumors from each mouse were collected, snap frozen in liquid nitrogen and then stored at −80° C.\nAssessed genes include K-Ras, MCL1, ENTPD1 (CD39) and TIM-3. The role and biological importance for these target genes is briefly discussed in Table 12."}, "A549, H460": {"tested_on": "A549, H460", "assay": "Cell cycle arrest profile (nuclei imaging or flow cytometry)", "format": "cell-based, human", "conditions": "10 nM", "description": "Depending on cancer cell type 3000-6000 cells were seeded in a 96 well plate. After cells attached, they were transfected with different concentrations of miRNA-193a and cell cycle profile was measured at different time points. At selected time points media was aspirated from wells and DNA staining solution (Hoescht 33342/Saponin/PFA) was added to each well and incubated for 2 hours at 37° C. Then, cell images were taken using Thermo Celllnsite in which nuclei were specified and nuclei intensity were measured. Nuclei intensity was analyzed using program R to determine the different phases of the cell cycle (G0/G1, S, G2/M) based on the DNA content.\nTo specifically detect the cells that are undergoing apoptosis, FITC Annexin V apoptosis detection kit (BD pharmingen) was used. […] After cells attached, they were transfected with different concentrations of miRNA-193a and apoptosis assay was measured at different time points following the manufacturer's protocol. With this assay we have detected the percentage of apoptotic cells indicating the SubG1 phase of the cell cycle.\nDifferent biological effects of miRNA-193a-3p have been tested in various cancer cell lines (see Table 13). […] For all experiments controls (untreated, mock and scrambled) were measured. […] All the results have been quantified and normalized to the mock control. […]"}}, "data": [{"substance": "miRNA-193a: duplex of the miRNA-193a-3p of SEQ ID NO: 218 (mimic, sense) with antisense strand SEQ ID NO: 219; naked in vitro, formulated in vivo (sense UGGGACUUUGUAGGCCAGUUTT; antisense AACUGGCCUACAAAGUCCCAGU; chemistry not given here; listed as Homo sapiens)", "values": [{"measurement": "Apoptosis (48/72 h)", "setting": "4T1", "value": "↑ (Induction < 2x)"}, {"measurement": "Growth of Hep3b HCC tumors measured by AFP and tumor weight", "setting": "[1]", "value": "did not inhibit growth"}, {"measurement": "Tumor growth inhibition (TGI), significance", "setting": "[2]; CT26, Renca, and Hepa1-6 models", "value": "did not induce significant TGI"}, {"measurement": "Tumor growth inhibition (TGI), significance", "setting": "[2]; H22, Pan02, B16-BL6, RM-1, B16F10, MC38, A20, and EMT-6 models", "value": "significantly induced tumor growth inhibition"}, {"measurement": "Expression of both enzymes involved in adenosine generation pathway (NT5E, ENTPD1)", "setting": "NT5E and ENTPD1", "value": "downregulated the expression of both enzymes"}, {"measurement": "Target mRNAs expression in tumor", "setting": "[3]", "value": "significant reduction"}, {"measurement": "Cell cycle arrest (72 h)", "setting": "A549, H460", "value": "SubG1"}]}]}
